According to patent US5861426A, “Nitro compounds of the formula A-Xi -NO2 and their compositions having anti-inflammatory, analgesic and anti-thrombotic activities” (Nicox S.A., priority 1994, dated 1999):

Columns and labels:
isolated rat aorta = experiment: Vasodilative activity, inhibition of contraction induced by epinephrine; settings: in vitro, 10^-5 to 10^-7 molar range
From the text: (§1) Example of the anti-cyclooxygenase (I), platelet anti-aggregating (II) and vasodilative (III) properties of the test compounds tested in vitro at concentrations in the molar range from 10^-5 to 10^-7 of the product in water/alcohol with the addition of small amounts of DMSO (dimethylsulphoxide). The activities are expressed as the potency ratio versus the natural product used as a unit standard, as stated in Table

cyclo-oxygenase = experiment: Anti-cyclooxygenase activity; assay type: cell-based; settings: for anti-cyclooxygenase (I), potency ratio versus natural product: in vitro, 10^-5 to 10^-7 molar range, natural product = 1.0
Method: (§2) The activity inhibiting cyclo-oxygenase was determined in isolated cells. Endothelial cells of bovine aorta were used as a source of COX-1 and macrophage line J774.2 as a source of COX-2. The same conditions described by Mitchell et al. (Proc. Nat. Acad. Sci. 90, 11693, 1993) for growth and the viability test were used.
(§3) In brief, the cells were incubated for 30 minutes with scalar concentrations of the test product and the substrate (arachidonic acid) was then added and incubated for another 15 minutes. Enzyme activity was determined radioimmunologically by measuring the formation of 6-keto-PGF 1 alpha. In the case of cell lines J.774.2, the cells were incubated for 12 hours with endotoxin to promote COX-2 formation.
as §1

COX-2 = biological target: T1, COX-2 (Mus musculus, UniProt Q05769); experiment: COX-2 inhibition in isolated cells; assay type: cell-based; settings: macrophage line J774.2 with endotoxin, read-out: COX-2 response, % of the controls with response variability; for remaining activity at 100 µg/mL: 0.1 mg/ml; for remaining activity at 1000 µg/mL: 1.0 mg/ml
T1 construct: endogenous in cells; host or cells: J774.2 macrophages, 12 h with endotoxin
T1 sequence (Q05769 18-604): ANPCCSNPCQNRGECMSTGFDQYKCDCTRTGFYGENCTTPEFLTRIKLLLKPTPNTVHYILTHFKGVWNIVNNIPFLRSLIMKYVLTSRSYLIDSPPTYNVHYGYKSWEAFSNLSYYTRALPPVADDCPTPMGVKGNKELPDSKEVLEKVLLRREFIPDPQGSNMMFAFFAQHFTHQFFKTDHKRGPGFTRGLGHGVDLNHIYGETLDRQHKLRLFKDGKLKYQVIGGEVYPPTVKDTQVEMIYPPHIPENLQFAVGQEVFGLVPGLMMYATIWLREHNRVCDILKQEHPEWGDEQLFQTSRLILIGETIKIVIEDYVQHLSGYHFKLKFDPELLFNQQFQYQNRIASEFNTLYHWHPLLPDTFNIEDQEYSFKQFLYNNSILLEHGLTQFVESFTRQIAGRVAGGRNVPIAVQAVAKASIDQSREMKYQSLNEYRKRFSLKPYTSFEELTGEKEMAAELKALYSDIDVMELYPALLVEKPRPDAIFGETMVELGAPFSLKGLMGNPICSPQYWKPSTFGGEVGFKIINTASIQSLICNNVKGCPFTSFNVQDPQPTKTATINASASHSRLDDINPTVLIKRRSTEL
Method: as §2, §3
(§4) Study of the anti-cyclooxygenase (COX-1/COX-2) properties in isolated cells.
(§5) Response expressed as a % of the controls with relative response variability.

nitrosynthetase (NOS) = experiment: Nitrosynthetase (NOS) activity induced by LPS in rats; assay type: in vivo, rat; settings: oral, LPS only = 100
Method: The nitrosynthetase inhibition activity induced by lipopolysaccharide (LPS) was determined in rat neutrophils and stomach after administration of one of the test compounds and compared with that obtained after treatment of the suspension vehicle only.
In brief, Wistar rats fasting for 24 hours before treatment were orally administered the test product (10 mg/Kg) and intravenously (caudal vein) administered LPS (5 mg/Kg).
Four hours later the animals were sacrificed and the blood--for neutrophils isolation--and the stomach taken.
Enzyme activity was determined in accordance with the method described by Assreuy et al. (Br. J. Pharmacol. 108, 833, 1993).
Study of the inhibitory properties of the nitrosynthetase (NOS) activity induced by liposaccharide (LPS) in rats using oral doses ranging from 5 to 20 mg/Kg suspended in a carboxymethylcellulose base.

COX-1 = biological target: T2, COX-1 (Bos taurus, UniProt O62664); experiment: COX-1 inhibition in isolated cells; assay type: cell-based, bovine; settings: endothelial cells of bovine aorta, read-out: COX-1 response, % of the controls with response variability; for remaining activity at 1000 µg/mL: 1.0 mg/ml
T2 construct: Endothelial cells of bovine aorta were used as a source of COX-1; endogenous in cells; host or cells: bovine aortic endothelial cells
T2 sequence (O62664 25-600): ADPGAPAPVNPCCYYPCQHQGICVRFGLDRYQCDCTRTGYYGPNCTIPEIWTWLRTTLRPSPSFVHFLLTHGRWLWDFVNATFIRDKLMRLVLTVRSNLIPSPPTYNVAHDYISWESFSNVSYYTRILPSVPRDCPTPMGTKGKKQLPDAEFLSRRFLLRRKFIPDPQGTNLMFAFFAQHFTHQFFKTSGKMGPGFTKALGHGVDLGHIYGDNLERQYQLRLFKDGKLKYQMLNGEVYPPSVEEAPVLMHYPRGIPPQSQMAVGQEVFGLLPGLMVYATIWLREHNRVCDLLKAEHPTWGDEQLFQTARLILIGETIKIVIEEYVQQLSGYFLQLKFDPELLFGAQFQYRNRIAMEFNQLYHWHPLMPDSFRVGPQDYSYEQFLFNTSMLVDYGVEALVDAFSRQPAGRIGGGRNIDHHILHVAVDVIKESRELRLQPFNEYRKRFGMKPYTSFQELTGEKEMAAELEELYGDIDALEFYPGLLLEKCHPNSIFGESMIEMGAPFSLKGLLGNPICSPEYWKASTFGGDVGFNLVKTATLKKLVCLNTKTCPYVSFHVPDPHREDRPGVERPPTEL
Method: as §2, §3, §4, §5

[1] = system: human platelets stimulated by thrombin; experiment: Platelet anti-aggregating activity in vitro; assay type: cell-based; settings: 10^-5 to 10^-7 molar range, natural product = 1.0
From the text: as §1

gastropathy = experiment: Gastric tolerance, severity of induced gastropathy; settings: rats, oral 3 to 30 mg/Kg in carboxymethylcellulose; natural product = 1.0
Method: Gastric tolerance was measured by oral administration to rats assessing the severity of the gastropathy induced in accordance with the criteria described by Wallace et al. (Am. J. Physiol. 259, G642, 1990).
Study of the anti-inflammatory (I) and analgesic (II) properties (pharmacodynamics) and gastrointestinal tolerance (III) (toxicity) of the test compounds after oral administration of doses ranging from 3 to 30 mg/Kg in carboxymethylcellulose suspensions and constructing dose-responsecurves.
Activities are expressed as the potency ratio compared to the natural product used as a unit standard. The nitroderivative is that of the shown examples, the natural reference compound is that shown as a reference.

Swiss mice = experiment: Analgesic activity (Hendershot et al.); assay type: in vivo; settings: oral 3 to 30 mg/Kg in carboxymethylcellulose, natural product = 1.0
Method: (§6) Study of the anti-inflammatory (I) and analgesic (II) properties (pharmacodynamics) and gastrointestinal tolerance (III) (toxicity) of the test compounds after oral administration of doses ranging from 3 to 30 mg/Kg in carboxymethylcellulose suspensions and constructing dose-responsecurves. […] Activities are expressed as the potency ratio compared to the natural product used as a unit standard.

carrageenin-oedema = experiment: Anti-inflammatory activity, carrageenin-oedema method; assay type: in vivo; settings: rats, oral 3 to 30 mg/Kg in carboxymethylcellulose; natural product = 1.0
Method: as §6

| Structure (SMILES) | vasodilative (III), % of inhibitory action of the vasospasm induced by epinephrine (isolated rat aorta) | gastrointestinal tolerance (III) (toxicity), potency ratio versus natural reference product (gastropathy) | analgesic properties (II), potency ratio versus natural reference product (Swiss mice) | anti-inflammatory properties (I), potency ratio versus natural reference product (carrageenin-oedema) | further results |
| --- | --- | --- | --- | --- | --- |
| CC(=O)Oc1ccccc1C(=O)O [ASPIRIN, acetylsalicylic acid, reference compound] | inactive | – | – | – | – |
| O=C(Cc1ccccc1Nc1c(Cl)cccc1Cl)OCCCCO[N+](=O)[O-] [DICLOFENAC NITROXYBUTYLESTER, reference compound] | – | – | – | – | direct inhibition of cyclo-oxygenase COX-1 and COX-2 (cyclo-oxygenase; Table 4 data): capable of directly inhibiting cyclo-oxygenase COX-1 and COX-2; remaining activity at 100 µg/mL (COX-2): 68 ± 11%; remaining activity at 1000 µg/mL (COX-2): 41 ± 11%; NOS, neutrophils; inhibition relative to the group treated with LPS only (nitrosynthetase (NOS)): 49; NOS, stomach; inhibition relative to the group treated with LPS only (nitrosynthetase (NOS)): 37; remaining activity at 100 µg/mL (COX-1; 0.1 mg/ml): 45 ± 22%; remaining activity at 1000 µg/mL (COX-1): 24 ± 10% |
| O=C(O)Cc1ccccc1Nc1c(Cl)cccc1Cl [DICLOFENAC, reference compound] | inactive | – | – | – | – |
| CC(=O)Oc1ccccc1C(=O)OCCOCCO[N+](=O)[O-] [Example 1a, 2-acetoxy-benzoate of 2-[2-(nitroxy)ethoxy]ethyl] | 60% | 0.2 | 1.1 | 1.2 | anti-cyclooxygenase (I), potency ratio versus natural product (cyclo-oxygenase): 1.5; platelet anti-aggregating (II), potency ratio versus natural product [1]: 3.0 |
| CC(C(=O)Oc1cccc(CO[N+](=O)[O-])c1)c1cccc(C(=O)c2ccccc2)c1 (stereo not shown) [Example 1c, 2-(3-benzoyl)phenylpropionate of 3-(nitroxymethyl)phenyl] | 50% | 0.1 | 1.2 | 1.0 | anti-cyclooxygenase (I), potency ratio versus natural product (cyclo-oxygenase): 1.2; NOS, neutrophils; inhibition relative to the group treated with LPS only (nitrosynthetase (NOS)): 30; NOS, stomach; inhibition relative to the group treated with LPS only (nitrosynthetase (NOS)): 40; platelet anti-aggregating (II), potency ratio versus natural product [1]: 1.8 |
| CC(C)Cc1ccc(C(C)C(=O)OCCOCCO[N+](=O)[O-])cc1 (stereo not shown) [Example 1d] | – | 0.1 | 1.1 | 1.0 | – |
| CC(C(=O)OCCOCCO[N+](=O)[O-])c1ccc(-c2ccccc2)c(F)c1 (stereo not shown) [Example 1e] | – | 0.1 | 1.0 | 1.0 | remaining activity at 100 µg/mL (COX-2): 47 ± 4%; remaining activity at 1000 µg/mL (COX-2): 18 ± 2%; remaining activity at 1000 µg/mL (COX-1): 22 ± 3% |
| O=C(c1ccccc1)c1ccc2n1CCC2C(=O)OCCOCCO[N+](=O)[O-] (stereo not shown) [Example 1f] | – | 0.1 | 1.0 | 1.0 | – |
| CC(C(=O)OCCOCCO[N+](=O)[O-])c1ccc(C(=O)c2ccccc2)s1 (stereo not shown) [Example 1g] | – | 0.1 | 1.3 | 0.9 | – |
| COc1ccc2cc(C(C)C(=O)OCCOCCO[N+](=O)[O-])ccc2c1 (stereo not shown) [Example 1h] | – | 0.1 | 1.3 | 1.3 | – |
| CC(C(=O)O)c1ccc(-c2ccccc2)c(F)c1 (stereo not shown) [FLURBIPROFEN, reference compound] | – | – | 1.0 | 1.0 | – |
| CC(C)Cc1ccc(C(C)C(=O)O)cc1 (stereo not shown) [IBUPROFEN, reference compound] | – | 1.0 | 1.0 | 1.0 | – |
| CC(C(=O)O)c1cccc(C(=O)c2ccccc2)c1 (stereo not shown) [KETOPROFEN, 2-(3-benzoyl)phenyl propionic acid, reference compound] | inactive | – | – | – | – |
| O=C(c1ccccc1)c1ccc2n1CCC2C(=O)O (stereo not shown) [KETOROLAC, reference compound] | – | 1.0 | 1.0 | 1.0 | – |
| CC(C(=O)OCCCCO[N+](=O)[O-])c1cccc(C(=O)c2ccccc2)c1 (stereo not shown) [NITROXYBUTYLKETOPROFEN, reference compound] | – | – | – | – | NOS, neutrophils; inhibition relative to the group treated with LPS only (nitrosynthetase (NOS)): 55; NOS, stomach; inhibition relative to the group treated with LPS only (nitrosynthetase (NOS)): 35 |
| CC(C(=O)O)c1ccc(C(=O)c2ccccc2)s1 (stereo not shown) [TIAPROFENIC ACID, reference compound] | – | 1.0 | 1.0 | 1.0 | – |
